From patent publication US7678390B2, “Carbon monoxide as a biomarker and therapeutic agent” (priority 1999, dated 2010)

Experiments:
RAW 264.7 cells = assay: Nitrate/nitrite analysis of cell culture media; format: cell-based, mouse; details: 1 h post LPS, presence or absence of CO
Experimental: Nitrate/Nitrite Analysis. Both analytes were measured in the cell culture media which had been ultrafiltered to remove all proteins greater than 10,000 molecular weight. All samples were than analyzed according to the assay kit protocols. (R & D, Minneapolis, Minn.). cGMP Radioimmunoassay (RIA) in macrophages. Macrophages or vascular smooth muscle cells were exposed to CO (250 ppm) or air. 20 min before the end of the exposure 1 mM of 3-isobutyl-1-methylxanthine (IBMX) was added to the cells to prevent phosphodiesterase degradation of cGMP. After 2 h of exposure, cells were removed from the exposure chamber, rinsed with PBS and then 0.5 ml of 75% EtOH was added to the plate and cells were scraped and disrupted via sonication for 5 s. Samples were then centrifuged at 2000 g for 10 min. Supernatants were transferred to fresh tubes and evaporated to dryness. cGMP concentration in the cell extracts was determined by radioimmunoassay (NEN, Boston, Mass.) according to manufacturer's instructions. cGMP was normalized to protein concentration as determined by Bradford assay. Statistical Analysis. Data are expressed as the mean±SE. Differences in measured variables between experimental and control group were assessed using Student's t tests. Statistical calculations were performed on a Macintosh personal computer using the Statview II Statistical Package (Abacus Concepts, Berkeley, Calif.). […]

[1] = test system: rats exposed to hyperoxia (>98% O2); format: in vivo, rat
Text: Animals were exposed to >98% O2 or 98% O2+CO mixtures at a flow rate of 12 liters/min in a 3.70-cubic-foot glass exposure chamber. Animals were supplied food and water during the exposures. CO at a concentration of 1% (10,000 ppm) in compressed air was mixed with >98% O2 in a stainless steel mixing cylinder prior to entering the exposure chamber. By varying the flow rates of CO into the mixing cylinder, concentrations delivered to the exposure chamber were controlled. Because the flow rate was primarily determined by the O2 flow, only the CO flow was changed to generate the different concentrations delivered to the exposure chamber. A carbon monoxide analyzer (Interscan Corporation, Chatsworth, Calif.) was used to measure CO levels continuously in the chamber. Gas samples were taken by the analyzer through a port in the top of the exposure chamber at a rate of 1 liter/min and analyzed by electrochemical detection with a sensitivity of 10 ppm to 600 ppm. CO levels in the chamber were recorded at hourly intervals and there were no changes in chamber CO concentrations once the chamber had equilibrated. O2 concentrations in the chamber were determined using a gas spectrometer.
Lungs were fixed by perfusion with 10% formalin at 20 cm H2O pressure and embedded in paraffin. Lung sections of […] were mounted onto slides pretreated with 3-aminopropylethoxysilane (Digene Diagnostics, Inc., Beltsville, Md.). Slides were baked for 30 min at 60° C. and washed twice in fresh xylene for 5 min to remove the paraffin. The slides were then rehydrated though a series of graded alcohols and then washed in distilled water for 3 min prior to staining with hematoxylin and eosin.
Animals were anesthesized with sodium pentobarbital 24 h after LPS administration or 56 h of hyperoxia exposure. BAL (35 ml/kg) was performed 4 times with PBS (pH 7.4). Cells were pooled from the lavages and centrifuged at 1200 g for 10 min. The supernatant was discarded and cells were resuspended in PBS. Cell counts were performed using a Neubaur hemocytometer. For differential analysis, samples were cytocentrifuged and stained with Diff-Quik. Measurement of Injury Markers Rats were removed at 56 h of hyperoxia and anesthetized with sodium pentobarbital. The pleural effusion was collected by inserting an 18 gauge needle and 10 cc syringe through the diaphragm and withdrawing all fluid present in the pleural cavity. BAL was performed as described above, and the first lavage was centrifuged at 1200 g for 10 min and the supernatant was assayed for the protein albumin as determined by Bromcresol Green Kit (BCG) from Sigma (St. Louis, Mo.). Arterial Blood Oxygen Tension and Carboxyhemoglobin Determination Indwelling catheters were surgically implanted into the carotid arteries of rats anesthetized with 3% v/v isoflurane. Animals were secured in jackets and tethers to allow movement about the cage and access to food and water which were placed inside the exposure chambers. Polyethelene tubing, connected to the catheter and threaded out through an airtight fitting in the lid of the chamber, was used for continuous heparin infusion throughout the exposure (20 U/ml at 0.1 ml/h) to maintain patency of the vessel. At each time point, 1 cc of blood was drawn into a heparinized syringe, sealed and placed on ice until analyzed for oxygen tension. Arterial oxygen tension and carboxyhemoglobin were determined using a BG3 Instrumentation Laboratory Blood Gas Analyzer and Co-oximeter (Boston, Mass.). […]

[2] = hyperoxia in the presence of CO

## [C-]#[O+] [CO, carbon monoxide]
RAW 264.7 cells
  nitrate or nitrite levels: no increases
[1]; 56 h hyperoxia in the presence of CO (250 ppm)
  neutrophil influx into the airways (BAL): significant reductions
[1]; 56 h hyperoxia in the presence of CO (250 ppm), TUNEL/DAPI
  lung apoptotic index: 1.8%±0.12
[1]; 56 h hyperoxia in the presence of a low concentration of CO
  volume of pleural effusion: marked inhibition
[1]; [2]
  lung histology: completely normal macroscopically and microscopically
  protein accumulation into the airways (bronchoalveolar lavage): significantly lower levels
